For 22 compounds, IC50 results are on record in patent US9216999B2, “Substituted pyrrolo[2,3-h][1,6]naphthyridines and compositions thereof as JAK inhibitors” (priority 2011, dated 2015).

What all share (assay type): biochemical
Common to all, as to conditions: ATP 100 μM

For one test, the target named is JAK1 (Homo sapiens (Human), UniProt P23458). As to the kind of experiment: Enzyme assay (Assay Example^a 1), JAK1.
The next test addresses JAK2 (Homo sapiens (Human), UniProt O60674). As to the kind of experiment: Enzyme assay (Assay Example^a 1), JAK2.
The next test deals with JAK3 (Homo sapiens (Human), UniProt P52333). The test is described as follows: Enzyme assay (Assay Example^a 1), JAK3.
A further test concerns the target Tyk2 (Homo sapiens (Human), UniProt P29597). The test is described as follows: Enzyme assay (Assay Example^a 1), Tyk2.

Chain of Tyk2 (P29597 whole entry): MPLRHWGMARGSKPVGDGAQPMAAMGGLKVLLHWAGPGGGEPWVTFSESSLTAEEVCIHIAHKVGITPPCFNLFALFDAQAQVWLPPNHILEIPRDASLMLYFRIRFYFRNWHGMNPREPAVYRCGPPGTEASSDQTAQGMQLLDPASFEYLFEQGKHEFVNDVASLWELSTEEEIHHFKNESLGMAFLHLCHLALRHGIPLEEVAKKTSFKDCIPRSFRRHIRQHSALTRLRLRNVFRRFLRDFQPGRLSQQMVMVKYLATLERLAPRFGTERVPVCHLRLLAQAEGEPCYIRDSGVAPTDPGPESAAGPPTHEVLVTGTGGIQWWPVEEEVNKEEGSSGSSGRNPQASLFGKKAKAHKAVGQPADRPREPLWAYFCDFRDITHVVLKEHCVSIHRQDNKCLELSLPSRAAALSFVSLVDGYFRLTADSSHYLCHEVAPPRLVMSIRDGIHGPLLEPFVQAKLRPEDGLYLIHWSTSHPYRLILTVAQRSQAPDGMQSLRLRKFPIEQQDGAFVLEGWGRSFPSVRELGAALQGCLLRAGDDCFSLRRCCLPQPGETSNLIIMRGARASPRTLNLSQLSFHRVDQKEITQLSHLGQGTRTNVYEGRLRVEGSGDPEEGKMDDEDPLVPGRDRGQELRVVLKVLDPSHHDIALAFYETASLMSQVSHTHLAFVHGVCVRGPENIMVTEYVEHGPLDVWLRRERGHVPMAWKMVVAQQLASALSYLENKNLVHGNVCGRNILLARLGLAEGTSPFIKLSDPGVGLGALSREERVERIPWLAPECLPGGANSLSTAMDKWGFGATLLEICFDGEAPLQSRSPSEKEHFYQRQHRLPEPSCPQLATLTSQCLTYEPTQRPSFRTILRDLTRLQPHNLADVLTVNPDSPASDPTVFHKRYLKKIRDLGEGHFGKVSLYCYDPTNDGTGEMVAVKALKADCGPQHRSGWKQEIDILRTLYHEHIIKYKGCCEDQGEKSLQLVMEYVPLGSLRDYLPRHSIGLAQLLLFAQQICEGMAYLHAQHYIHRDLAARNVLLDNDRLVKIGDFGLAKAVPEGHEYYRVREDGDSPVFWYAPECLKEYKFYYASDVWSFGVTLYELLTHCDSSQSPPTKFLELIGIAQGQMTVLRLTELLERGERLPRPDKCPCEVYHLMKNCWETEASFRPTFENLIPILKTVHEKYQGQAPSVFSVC
Chain of JAK3 (P52333 whole entry): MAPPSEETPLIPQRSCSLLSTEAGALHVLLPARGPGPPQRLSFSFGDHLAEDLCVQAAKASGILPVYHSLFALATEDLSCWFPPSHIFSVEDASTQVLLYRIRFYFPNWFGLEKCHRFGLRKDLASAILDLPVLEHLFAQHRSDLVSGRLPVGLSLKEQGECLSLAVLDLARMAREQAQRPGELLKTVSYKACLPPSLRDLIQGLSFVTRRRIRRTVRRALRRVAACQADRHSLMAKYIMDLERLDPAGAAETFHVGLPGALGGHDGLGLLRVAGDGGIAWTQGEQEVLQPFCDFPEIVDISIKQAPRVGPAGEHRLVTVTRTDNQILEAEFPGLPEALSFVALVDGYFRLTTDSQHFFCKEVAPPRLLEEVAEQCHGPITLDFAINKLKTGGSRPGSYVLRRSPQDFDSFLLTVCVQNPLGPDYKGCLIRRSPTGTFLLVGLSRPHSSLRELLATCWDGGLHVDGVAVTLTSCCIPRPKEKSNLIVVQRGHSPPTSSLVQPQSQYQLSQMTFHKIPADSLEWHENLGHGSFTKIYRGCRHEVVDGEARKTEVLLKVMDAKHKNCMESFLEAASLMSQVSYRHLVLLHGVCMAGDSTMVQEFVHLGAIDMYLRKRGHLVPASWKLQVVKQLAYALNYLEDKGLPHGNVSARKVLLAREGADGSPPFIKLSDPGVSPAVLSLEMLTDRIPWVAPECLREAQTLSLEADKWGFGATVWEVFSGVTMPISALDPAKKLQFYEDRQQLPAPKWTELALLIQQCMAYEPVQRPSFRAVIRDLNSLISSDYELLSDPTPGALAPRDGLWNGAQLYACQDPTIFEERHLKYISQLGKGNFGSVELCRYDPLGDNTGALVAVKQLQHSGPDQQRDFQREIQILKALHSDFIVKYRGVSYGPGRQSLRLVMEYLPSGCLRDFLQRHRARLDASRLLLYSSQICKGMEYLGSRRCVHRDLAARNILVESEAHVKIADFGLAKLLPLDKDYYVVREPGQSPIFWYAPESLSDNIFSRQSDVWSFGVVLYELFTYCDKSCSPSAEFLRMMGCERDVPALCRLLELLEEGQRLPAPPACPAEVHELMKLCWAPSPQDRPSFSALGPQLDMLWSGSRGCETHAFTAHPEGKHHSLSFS

Turning to `FC(F)(F)C(NC[C@H]1CC[C@H](c2nnn3cnc4[nH]ccc4c23)CC1)C(F)(F)F` [compound 317, N-{[trans-4-(7H-pyrrolo[3,2-e][1,2,3]triazolo[1,5-c]pyrimidin-1-yl)cyclohexyl]methyl}-1,1,1,3,3,3-hexafluoropropan-2-amine], the 50% inhibitory concentration (IC50) on JAK1 stood at 0.0013 µM; on JAK2, 0.016 µM; at JAK3, 0.47 µM; against Tyk2 it was 0.62 µM.
Take `CC(=O)N[C@@H]1CCN(C[C@H]2CC[C@H](c3nnn4cnc5[nH]ccc5c34)CC2)C1` [compound 318, N-((R)-1-{[trans-4-(7H-pyrrolo[3,2-e][1,2,3]triazolo[1,5-c]pyrimidin-1-yl)cyclohexyl]methyl}pyrrolidin-3-yl)acetamide]: the half-maximal inhibitory concentration (IC50) at JAK1 was 0.0048 µM; at JAK2, 0.057 µM; against JAK3, > 1 µM; on Tyk2, 0.61 µM.
For `CC(=O)N[C@H]1CCN(C[C@H]2CC[C@H](c3nnn4cnc5[nH]ccc5c34)CC2)C1` [compound 319, N-((S)-1-{[trans-4-(7H-pyrrolo[3,2-e][1,2,3]triazolo[1,5-c]pyrimidin-1-yl)cyclohexyl]methyl}pyrrolidin-3-yl)acetamide] the same measures were 0.027 µM, 0.23 µM, > 1 µM and > 1 µM.
For `O=C(N[C@@H]1CCN(C[C@H]2CC[C@H](c3nnn4cnc5[nH]ccc5c34)CC2)C1)C(F)(F)F` [compound 320, N-((R)-1-{[trans-4-(7H-pyrrolo[3,2-e][1,2,3]triazolo[1,5-c]pyrimidin-1-yl)cyclohexyl]methyl}pyrrolidin-3-yl)-2,2,2-trifluoroacetamide], in that order: 0.0076 µM, 0.057 µM, > 1 µM and 0.86 µM.
For `O=C(N[C@H]1CCN(C[C@H]2CC[C@H](c3nnn4cnc5[nH]ccc5c34)CC2)C1)C(F)(F)F` [compound 321, N-((S)-1-{[trans-4-(7H-pyrrolo[3,2-e][1,2,3]triazolo[1,5-c]pyrimidin-1-yl)cyclohexyl]methyl}pyrrolidin-3-yl)-2,2,2-trifluoroacetamide] the same measures were 0.024 µM, 0.21 µM, > 1 µM and > 1 µM.
On to `Fc1ccc(C2(NC[C@H]3CC[C@H](c4nnn5cnc6[nH]ccc6c45)CC3)CCC2)cc1` [compound 324, N-{[trans-4-(7H-pyrrolo[3,2-e][1,2,3]triazolo[1,5-c]pyrimidin-1-yl)cyclohexyl]methyl}-1-(4-fluorophenyl)cyclobutanamine], for which the IC50 is 0.0034 µM on JAK1, 0.034 µM against JAK2, 0.66 µM against JAK3 and 0.75 µM at Tyk2.
For the compound `COCCN(CCOC)C[C@H]1CC[C@H](c2nnn3cnc4[nH]ccc4c23)CC1` [compound 326, N-{[trans-4-(7H-pyrrolo[3,2-e][1,2,3]triazolo[1,5-c]pyrimidin-1-yl)cyclohexyl]methyl}-2-methoxy-N-(2-methoxyethyl)ethanamine], the IC50 against JAK1 is 0.048 µM; on JAK2, 0.31 µM; against JAK3, > 1 µM; against Tyk2, > 1 µM.
With `OCC1(NC[C@H]2CC[C@H](c3nnn4cnc5[nH]ccc5c34)CC2)CC1` [compound 327, [1-({[trans-4-(7H-pyrrolo[3,2-e][1,2,3]triazolo[1,5-c]pyrimidin-1-yl)cyclohexyl]methyl}amino)cyclopropyl]methanol], the half-maximal inhibitory concentration (IC50) against JAK1 is 0.007 µM; at JAK2 it was 0.054 µM; against JAK3 it was 0.79 µM; on Tyk2, 0.55 µM.
For `CNC[C@H]1CC[C@H](c2nnn3cnc4[nH]ccc4c23)CC1` [compound 329, 1-[trans-4-(7H-pyrrolo[3,2-e][1,2,3]triazolo[1,5-c]pyrimidin-1-yl)cyclohexyl]-N-methylmethanamine] the same measures were 0.0048 µM, 0.029 µM, 0.8 µM and 0.21 µM.
For `CCNC[C@H]1CC[C@H](c2nnn3cnc4[nH]ccc4c23)CC1` [compound 330, N-{[trans-4-(7H-pyrrolo[3,2-e][1,2,3]triazolo[1,5-c]pyrimidin-1-yl)cyclohexyl]methyl}ethanamine] the same measures were 0.0074 µM, 0.047 µM, > 1 µM and 0.14 µM.
For `CC(C)NC[C@H]1CC[C@H](c2nnn3cnc4[nH]ccc4c23)CC1` [compound 331, N-{[trans-4-(7H-pyrrolo[3,2-e][1,2,3]triazolo[1,5-c]pyrimidin-1-yl)cyclohexyl]methyl}propan-2-amine] the same measures were 0.0088 µM, 0.054 µM, > 1 µM and 0.42 µM.
Turning to `CC(C)(C)NC[C@H]1CC[C@H](c2nnn3cnc4[nH]ccc4c23)CC1` [compound 332, N-{[trans-4-(7H-pyrrolo[3,2-e][1,2,3]triazolo[1,5-c]pyrimidin-1-yl)cyclohexyl]methyl}-2-methylpropan-2-amine], the IC50 is 0.012 µM against JAK1, 0.045 µM against JAK2, > 1 µM at JAK3 and 0.49 µM on Tyk2.
With `C#CCNC[C@H]1CC[C@H](c2nnn3cnc4[nH]ccc4c23)CC1` [compound 333, N-{[trans-4-(7H-pyrrolo[3,2-e][1,2,3]triazolo[1,5-c]pyrimidin-1-yl)cyclohexyl]methyl}prop-2-yn-1-amine], the IC50 on JAK1 is 0.0085 µM; against JAK2, 0.044 µM; against JAK3, > 1 µM; against Tyk2 it was 0.27 µM.
For `c1cc2c(ncn3nnc([C@H]4CC[C@H](CN5CCC(N6CCOCC6)CC5)CC4)c23)[nH]1` [compound 334, 4-(1-{[trans-4-(7H-pyrrolo[3,2-e][1,2,3]triazolo[1,5-c]pyrimidin-1-yl)cyclohexyl]methyl}piperidin-4-yl)morpholine], in that order: 0.064 µM, > 1 µM, > 1 µM and > 1 µM.
For `CC(C)(C)OC(=O)N1CCC(CNC[C@H]2CC[C@H](c3nnn4cnc5[nH]ccc5c34)CC2)CC1` [compound 335, tert-butyl 4-[({[trans-4-(7H-pyrrolo[3,2-e][1,2,3]triazolo[1,5-c]pyrimidin-1-yl)cyclohexyl]methyl}amino)methyl]piperidine-1-carboxylate] the same measures were 0.029 µM, 0.29 µM, > 1 µM and 0.71 µM.
For `CC(C)(C)OC(=O)NCC1CCN(C[C@H]2CC[C@H](c3nnn4cnc5[nH]ccc5c34)CC2)CC1` [compound 336, tert-butyl [(1-{[trans-4-(7H-pyrrolo[3,2-e][1,2,3]triazolo[1,5-c]pyrimidin-1-yl)cyclohexyl]methyl}piperidin-4-yl)methyl]carbamate] the same measures were 0.025 µM, 0.37 µM, > 1 µM and > 1 µM.
For `CC(C)(C)OC(=O)N1CC[C@H](NC[C@H]2CC[C@H](c3nnn4cnc5[nH]ccc5c34)CC2)C1` [compound 337, (S)-tert-butyl 3-({[trans-4-(7H-pyrrolo[3,2-e][1,2,3]triazolo[1,5-c]pyrimidin-1-yl)cyclohexyl]methyl}amino)pyrrolidine-1-carboxylate], the IC50 at JAK1 is 0.029 µM; at JAK2 it was 0.34 µM; at JAK3, > 1 µM; against Tyk2 it was 0.51 µM.
For `FC1CN(C[C@H]2CC[C@H](c3nnn4cnc5[nH]ccc5c34)CC2)C1` [compound 338, 1-{trans-4-[(3-fluoroazetidin-1-yl)methyl]cyclohexyl}-7H-pyrrolo[3,2-e][1,2,3]triazolo[1,5-c]pyrimidine], in that order: 0.0069 µM, 0.06 µM, 0.48 µM and 0.59 µM.
For `FC1(F)CN(C[C@H]2CC[C@H](c3nnn4cnc5[nH]ccc5c34)CC2)C1` [compound 339, 1-{trans-4-[(3,3-difluoroazetidin-1-yl)methyl]cyclohexyl}-7H-pyrrolo[3,2-e][1,2,3]triazolo[1,5-c]pyrimidine] the same measures were 0.018 µM, 0.052 µM, 0.26 µM and 0.86 µM.
As to `CN(C)[C@@H]1CCN(C[C@H]2CC[C@H](c3nnn4cnc5[nH]ccc5c34)CC2)C1` [compound 340, (R)-1-{[trans-4-(7H-pyrrolo[3,2-e][1,2,3]triazolo[1,5-c]pyrimidin-1-yl)cyclohexyl]methyl}-N,N-dimethylpyrrolidin-3-amine], the half-inhibitory concentration (IC50) was 0.021 µM on JAK1, 0.23 µM against JAK2, > 1 µM against JAK3 and > 1 µM against Tyk2.
With `O=C(CNC[C@H]1CC[C@H](c2nnn3cnc4[nH]ccc4c23)CC1)NCC(F)(F)F` [compound 341, 2-({[trans-4-(7H-pyrrolo[3,2-e][1,2,3]triazolo[1,5-c]pyrimidin-1-yl)cyclohexyl]methyl}amino)-N-(2,2,2-trifluoroethyl)acetamide], the IC50 was found to be 0.01 µM on JAK1, 0.059 µM at JAK2, 0.31 µM at JAK3 and 0.32 µM at Tyk2.
With `FC(F)(F)C(F)(F)CNC[C@H]1CC[C@H](c2nnn3cnc4[nH]ccc4c23)CC1` [compound 342, N-{[trans-4-(7H-pyrrolo[3,2-e][1,2,3]triazolo[1,5-c]pyrimidin-1-yl)cyclohexyl]methyl}-2,2,3,3,3-pentafluoropropan-1-amine], the IC50 is 0.0039 µM against JAK1, 0.034 µM against JAK2, 0.13 µM on JAK3 and 0.35 µM at Tyk2.

By IC50 is commonly meant the concentration needed to halve the response being measured.
